Assay results: US7772188B2, “Methods and compositions for the treatment of gastrointestinal disorders” (priority 2003, dated 2010)
Positions of bridges follow the written chain, without caps; N, C: chain ends. Residues, ends and D or L forms follow the SMILES beside them.

Columns and labels:
PBQ-induced writhing = assay: Phenylbenzoquinone (PBQ)-induced writhing model
gastrointestinal transit = assay: Murine gastrointestinal transit (GIT) assay, charcoal front; assay type: in vivo, mice
Protocol: In order to determine whether the peptides increase the rate of gastrointestinal transit, the peptides and controls were tested using a murine gastrointestinal transit (GIT) assay (Moon et al. Infection and Immunity 25:127, 1979). In this assay, charcoal, which can be readily visualized in the gastrointestinal tract is administered to mice after the administration of a test compound. The distance traveled by the charcoal is measured and expressed as a percentage of the total length of the […].
Mice were fasted with free access to water for 12 to 16 hours before the treatment with peptide or control buffer. The peptides were orally administered at 1 μg/kg-1 mg/kg of peptide in buffer (20 mM Tris pH 7.5) 7 minutes before being given an oral dose of 5% Activated Carbon (Aldrich 242276-250G). Control mice were administered buffer only before being given a dose of Activated Carbon. After 15 minutes, the mice were sacrificed and their intestines from the stomach to the cecum were dissected. The total length of the intestine as well as the distance traveled from the stomach to the charcoal front was measured for each animal and the results are expressed as the percent of the total length of the intestine traveled by the charcoal front. All results are reported as the average of 10 mice±standard deviation. A comparison of the distance traveled by the charcoal between the mice treated with peptide versus the mice treated with vehicle alone was performed using a Student's t test and a statistically significant difference was considered for P<0.05. P-values are calculated using a two-sided T-Test assuming unequal variances.
The identical experiment was performed to determine if SEQ ID NO:3 is effective in a chronic dosing treatment regimen. Briefly, 8 week old CD1 female mice are dosed orally once a day for 5 days with either SEQ ID NO:3 (0.06 mg/kg or 0.25 mg/kg in 20 mM Tris pH 7.5) or vehicle alone (20 mM Tris pH 7.5). On the 5th day, a GIT assay is performed identical to that above except 200 μl of a 10% charcoal solution is administered. […] The results are shown side by side with acute dosing (1 day).

intestinal GC-C receptor = molecular target: T1, intestinal GC-C receptor (Homo sapiens, UniProt P25092); assay: Intestinal GC-C receptor activity assay (cyclic GMP by EIA in T84 cells); assay type: cell-based; settings: chemically synthesized peptides, FIG. 2
T1 construct: host or cells: T84 human colon carcinoma cells
T1 sequence (P25092 24-1073): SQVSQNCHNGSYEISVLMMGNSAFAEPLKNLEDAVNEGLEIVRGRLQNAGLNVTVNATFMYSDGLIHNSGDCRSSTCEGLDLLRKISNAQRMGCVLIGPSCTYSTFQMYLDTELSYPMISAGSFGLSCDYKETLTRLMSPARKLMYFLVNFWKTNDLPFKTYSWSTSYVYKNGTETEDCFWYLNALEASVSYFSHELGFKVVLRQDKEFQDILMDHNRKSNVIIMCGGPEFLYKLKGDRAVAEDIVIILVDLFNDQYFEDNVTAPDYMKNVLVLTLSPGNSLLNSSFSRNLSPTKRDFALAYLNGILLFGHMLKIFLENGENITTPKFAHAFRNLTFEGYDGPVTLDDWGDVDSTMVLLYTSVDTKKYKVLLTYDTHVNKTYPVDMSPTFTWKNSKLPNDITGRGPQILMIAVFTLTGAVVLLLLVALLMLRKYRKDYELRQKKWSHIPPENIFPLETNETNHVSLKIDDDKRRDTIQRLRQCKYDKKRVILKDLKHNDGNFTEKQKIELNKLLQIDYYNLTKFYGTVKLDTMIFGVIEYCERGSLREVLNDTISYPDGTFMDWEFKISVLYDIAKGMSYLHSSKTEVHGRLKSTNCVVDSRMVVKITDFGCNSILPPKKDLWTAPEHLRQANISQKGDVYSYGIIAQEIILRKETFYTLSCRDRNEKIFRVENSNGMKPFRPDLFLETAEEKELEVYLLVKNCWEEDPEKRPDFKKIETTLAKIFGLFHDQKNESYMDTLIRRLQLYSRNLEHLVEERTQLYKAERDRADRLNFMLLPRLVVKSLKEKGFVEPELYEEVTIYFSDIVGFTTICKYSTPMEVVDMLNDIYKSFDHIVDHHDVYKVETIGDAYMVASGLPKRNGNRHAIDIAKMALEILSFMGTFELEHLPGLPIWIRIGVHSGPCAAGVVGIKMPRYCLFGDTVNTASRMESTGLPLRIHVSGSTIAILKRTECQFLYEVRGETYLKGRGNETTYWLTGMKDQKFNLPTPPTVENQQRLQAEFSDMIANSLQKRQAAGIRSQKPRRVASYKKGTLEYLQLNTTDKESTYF
Protocol: The ability of SEQ ID NO:5, SEQ ID NO:4, and SEQ ID NO:3 to activate the intestinal GC-C receptor was assessed in an assay employing the T84 human colon carcinoma cell line (American Type Culture Collection (Bethesda, Md.)). For the assays cells were grown to confluency in 24-well culture plates with a 1:1 mixture of Ham's F12 medium and Dulbecco's modified Eagle's medium (DMEM), supplemented with 5% fetal calf serum and were used at between passages 54 and 60.
Briefly, monolayers of T84 cells in 24-well plates were washed twice with 1 ml/well DMEM, then incubated at 37° C. for 10 min with 0.45 ml DMEM containing 1 mM isobutylmethylxanthine (IBMX), a cyclic nucleotide phosphodiesterase inhibitor. Test peptides (50 μl) were then added and incubated for 30 minutes at 37° C. The media was aspirated and the reaction was then terminated by the addition of ice cold 0.5 ml of 0.1N HCl. The samples were held on ice for 20 minutes and then evaporated to dryness using a heat gun or vacuum centrifugation. The dried samples were resuspended in 0.5 ml of phosphate buffer provided in the Cayman Chemical Cyclic GMP EIA kit (Cayman Chemical, Ann Arbor, Mich.). Cyclic GMP was measured by EIA according to procedures outlined in the Cayman Chemical Cyclic GMP EIA kit.

[1] = Bioavailability study in mice, serum detection by LCMS; assay type: in vivo; settings: FIG. 10b
Protocol: A similar bioavailability study was performed in which LCMS rather than ELISA was used to detect SEQ ID NO:3. Initially, serum samples were extracted from the whole blood of exposed and control mice, then injected directly ([…]) onto an in-line solid phase extraction (SPE) column (Waters Oasis HLB […] column, 2.0×15 mm direct connect) without further processing. The sample on the SPE column was washed with a 5% methanol, 95% dH2O solution (2.1 mL/min, 1.0 minute), then loaded onto an analytical column using a valve switch that places the SPE column in an inverted flow path onto the analytical column (Waters Xterra MS C8 5 mm IS column, 2.1×20 mm). The sample was eluted from the analytical column with a reverse phase gradient (Mobile Phase A: 10 mM ammonium hydroxide in dH2O, Mobile Phase B: 10 mM ammonium hydroxide in 80% acetonitrile and 20% methanol; 20% B for the first 3 minutes then ramping to 95% B over 4 min. and holding for 2 min., all at a flow rate of 0.4 mL/min.). At 9.1 minutes, the gradient returns to the initial conditions of 20% B for 1 min. SEQ ID NO:3 eluted from the analytical column at 1.45 minutes, and was detected by triple-quadrapole mass spectrometry (MRM, 764 (+2 charge state)>182 (+1 charge state) Da; cone voltage=30V; collision=20 eV; parent resolution=2 Da at base peak; daughter resolution=2 Da at base peak). […]

[2] = Absorbability/bioavailability study in mice, serum detection by competitive ELISA; assay type: in vivo, CD1 mice; settings: FIG. 10a
Protocol: To study the pharmacokinetics of SEQ ID NO:3, absorbability studies in mice were performed by administering SEQ ID NO:3 intravaneously via tail vein injection or orally by gavage to 8-week-old CD1 mice. Serum was collected from the animals at various time points and tested for the presence of SEQ ID NO:3 using a competitive enzyme-linked immunoabsorbent assay (Oxoid, ST EIA kit, Cat#TD0700). The assay utilized monoclonal antibodies against ST peptide (antibodies are provided in the Oxoid kit) and synthetically manufactured SEQ ID NO:3.

intestinal secretion = assay: Suckling mouse model of intestinal secretion (SuMi assay); assay type: in vivo; settings: suckling mice; dose response; FIG. 5a/5b
Protocol: In this model a test compound is administered to suckling mice that are between 7 and 9 days old. After the mice are sacrificed, the gastrointestinal tract from the stomach to the cecum is dissected (“guts”). The remains (“carcass”) as well as the guts are weighed and the ratio of guts to carcass weight is calculated. If the ratio is above 0.09, one can conclude that the test compound increases intestinal secretion. […] The effect of Zelnorm® was also studied.

[3] = CD1, mouse, serum, oral versus IV

C[C@@H]1NC(=O)[C@@H]2CCCN2C(=O)[C@H](CC(N)=O)NC(=O)[C@@H]2CSSC[C@H](N)C(=O)N[C@H]3CSSC[C@H](NC1=O)C(=O)N[C@@H]([C@@H](C)O)C(=O)NCC(=O)N[C@H](C(=O)N[C@@H](Cc1ccc(O)cc1)C(=O)O)CSSC[C@H](NC(=O)[C@H](Cc1ccc(O)cc1)NC(=O)[C@H](CCC(=O)O)NC3=O)C(=O)N2 [SEQ ID NO:3, Cys Cys Glu Tyr Cys Cys Asn Pro Ala Cys Thr Gly Cys Tyr] (H-CCEYCCNPACTGCY-OH; disulfide 1-6, 2-10, 5-13; N-terminus and C-terminus assumed)
antinociceptive effect relative to indomethacin (PBQ-induced writhing; mouse PBQ writhing, visceral pain model): antinociceptive effects in this visceral pain model comparable to the intermediate doses of indomethacin
writhings compared to the vehicle control (PBQ-induced writhing; mouse, oral, 2.5 mg/kg dose, FIG. 8b): Significant reductions in writhings
gastrointestinal transit rate (gastrointestinal transit; acute, oral, mice, SEQ ID NO:4 and Zelnorm 0.1 mg/kg, FIG. 3a/3b): increase gastrointestinal transit rate
intestinal transit rate versus Tris buffer or equivalent dose of Zelnorm (gastrointestinal transit; acute, oral, mice, chemically synthesized peptides, FIG. 4b): increase intestinal transit rates more than either Tris buffer alone or an equivalent dose of Zelnorm®
effect in mouse gastrointestinal motility assay upon chronic dosing (gastrointestinal transit; oral once a day for 5 days, CD1 female mice, FIG. 4c): effective
activity in GC-C receptor activity assay (intestinal GC-C receptor): activity comparable to SEQ ID NO:4
bioavailability [1, 3]: < 0.11%
systemic absorption ([1]; oral): minimally systemically absorbed
bioavailability [2, 3]: < 2.2%
systemic absorption ([2]; oral): minimally systemically absorbed
intestinal secretion (guts to carcass weight ratio) (intestinal secretion): increase intestinal secretion
